In patent publication US20250276964A1 (Novartis AG, priority 2021, published 2025):

Molecular target: T1, WIZ (Homo sapiens, UniProt O95785+Q96SW2)
T1 construct: expressed in transfected cells
Assay: Quantification of WIZ protein levels in HiBit tag fusion protein assay (WIZ HiBit assay in 293T cells)
Format: cell-based
Conditions: for Dmax at 25 µM / remaining activity at 25 µM: HEK-293T; for Dmax at 25 µM / % degradation of WIZ (100-Amax): 100 minus Amax at 25 uM; for Dmax at 25 µM: read-out: % degradation of WIZ (100-Amax); for remaining activity at 25 µM / WIZ Amax: DMSO-normalized, curve-fitted percentage of WIZ-HiBit remaining at 25 uM; for remaining activity at 25 µM: read-out: WIZ Amax; for DC50: WIZ HiBit assay in 293T cells, 10-point, 5-fold dilution, highest concentration 25 μM, about 18 hours, read-out: WIZ AC50
Procedure, shortened: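 293T cells stably carrying single-copy HiBit-WIZ (HSVTK promoter) treated ~18 h at 37 °C with 10-point, 5-fold dilutions, top 25 μM. Lytic HiBit luminescence read; Amax is DMSO-normalised, curve-fitted % WIZ-HiBit remaining at 25 uM.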

T1 sequence (O95785 whole entry): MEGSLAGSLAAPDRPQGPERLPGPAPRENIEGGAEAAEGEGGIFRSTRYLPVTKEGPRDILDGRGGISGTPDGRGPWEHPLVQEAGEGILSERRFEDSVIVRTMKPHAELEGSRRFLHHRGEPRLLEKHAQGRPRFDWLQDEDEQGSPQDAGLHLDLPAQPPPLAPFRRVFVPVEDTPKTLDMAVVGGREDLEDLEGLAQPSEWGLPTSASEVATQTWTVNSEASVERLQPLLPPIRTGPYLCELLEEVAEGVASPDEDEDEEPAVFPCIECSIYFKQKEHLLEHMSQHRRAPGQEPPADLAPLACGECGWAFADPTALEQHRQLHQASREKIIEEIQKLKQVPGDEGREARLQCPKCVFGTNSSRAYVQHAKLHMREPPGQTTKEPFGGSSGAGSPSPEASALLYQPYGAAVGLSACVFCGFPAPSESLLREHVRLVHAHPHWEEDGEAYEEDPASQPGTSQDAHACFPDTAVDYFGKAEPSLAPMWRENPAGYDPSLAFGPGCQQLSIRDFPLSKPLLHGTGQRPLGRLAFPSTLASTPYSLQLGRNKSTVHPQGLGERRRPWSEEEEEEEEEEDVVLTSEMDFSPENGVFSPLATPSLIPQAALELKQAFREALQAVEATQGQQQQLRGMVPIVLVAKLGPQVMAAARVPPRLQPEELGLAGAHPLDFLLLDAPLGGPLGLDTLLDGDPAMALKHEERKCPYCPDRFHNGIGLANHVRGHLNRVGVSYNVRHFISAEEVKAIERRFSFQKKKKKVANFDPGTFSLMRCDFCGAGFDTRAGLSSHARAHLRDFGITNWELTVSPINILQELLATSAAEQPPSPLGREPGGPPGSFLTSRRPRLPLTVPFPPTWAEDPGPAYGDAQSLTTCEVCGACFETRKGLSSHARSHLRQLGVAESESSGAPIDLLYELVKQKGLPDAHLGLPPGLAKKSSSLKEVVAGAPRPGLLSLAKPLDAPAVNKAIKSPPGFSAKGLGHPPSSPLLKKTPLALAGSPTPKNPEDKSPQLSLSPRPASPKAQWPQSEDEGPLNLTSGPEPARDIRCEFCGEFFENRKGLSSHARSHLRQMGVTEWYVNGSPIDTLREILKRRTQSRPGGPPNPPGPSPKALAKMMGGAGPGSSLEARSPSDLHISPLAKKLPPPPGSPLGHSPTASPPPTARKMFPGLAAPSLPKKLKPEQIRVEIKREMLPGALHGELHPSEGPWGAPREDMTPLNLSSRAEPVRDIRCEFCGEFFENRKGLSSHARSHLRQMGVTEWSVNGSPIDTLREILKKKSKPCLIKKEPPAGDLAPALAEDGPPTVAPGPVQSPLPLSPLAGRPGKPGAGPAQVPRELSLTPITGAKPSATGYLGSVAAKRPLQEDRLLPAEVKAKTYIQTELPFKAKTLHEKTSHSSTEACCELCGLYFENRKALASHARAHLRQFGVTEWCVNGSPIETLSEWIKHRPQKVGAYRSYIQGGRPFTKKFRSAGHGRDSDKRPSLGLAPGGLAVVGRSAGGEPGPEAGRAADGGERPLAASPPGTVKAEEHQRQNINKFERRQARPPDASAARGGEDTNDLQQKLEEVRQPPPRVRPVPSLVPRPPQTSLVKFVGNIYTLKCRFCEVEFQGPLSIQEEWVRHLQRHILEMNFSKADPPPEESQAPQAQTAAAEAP
T1 sequence (Q96SW2 whole entry): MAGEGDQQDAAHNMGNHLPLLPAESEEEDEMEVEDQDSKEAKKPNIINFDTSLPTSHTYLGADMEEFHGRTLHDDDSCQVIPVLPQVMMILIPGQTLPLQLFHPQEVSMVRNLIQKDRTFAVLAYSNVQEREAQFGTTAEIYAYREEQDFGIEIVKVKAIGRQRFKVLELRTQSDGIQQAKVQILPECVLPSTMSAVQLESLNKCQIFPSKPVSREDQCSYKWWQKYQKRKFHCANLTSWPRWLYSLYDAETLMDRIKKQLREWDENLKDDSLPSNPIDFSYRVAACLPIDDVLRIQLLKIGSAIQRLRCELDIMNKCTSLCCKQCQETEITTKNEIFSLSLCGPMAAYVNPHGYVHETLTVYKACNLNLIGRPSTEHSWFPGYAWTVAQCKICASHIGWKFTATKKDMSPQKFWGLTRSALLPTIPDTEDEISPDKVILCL
T1 sequence (Q16531 whole entry partner): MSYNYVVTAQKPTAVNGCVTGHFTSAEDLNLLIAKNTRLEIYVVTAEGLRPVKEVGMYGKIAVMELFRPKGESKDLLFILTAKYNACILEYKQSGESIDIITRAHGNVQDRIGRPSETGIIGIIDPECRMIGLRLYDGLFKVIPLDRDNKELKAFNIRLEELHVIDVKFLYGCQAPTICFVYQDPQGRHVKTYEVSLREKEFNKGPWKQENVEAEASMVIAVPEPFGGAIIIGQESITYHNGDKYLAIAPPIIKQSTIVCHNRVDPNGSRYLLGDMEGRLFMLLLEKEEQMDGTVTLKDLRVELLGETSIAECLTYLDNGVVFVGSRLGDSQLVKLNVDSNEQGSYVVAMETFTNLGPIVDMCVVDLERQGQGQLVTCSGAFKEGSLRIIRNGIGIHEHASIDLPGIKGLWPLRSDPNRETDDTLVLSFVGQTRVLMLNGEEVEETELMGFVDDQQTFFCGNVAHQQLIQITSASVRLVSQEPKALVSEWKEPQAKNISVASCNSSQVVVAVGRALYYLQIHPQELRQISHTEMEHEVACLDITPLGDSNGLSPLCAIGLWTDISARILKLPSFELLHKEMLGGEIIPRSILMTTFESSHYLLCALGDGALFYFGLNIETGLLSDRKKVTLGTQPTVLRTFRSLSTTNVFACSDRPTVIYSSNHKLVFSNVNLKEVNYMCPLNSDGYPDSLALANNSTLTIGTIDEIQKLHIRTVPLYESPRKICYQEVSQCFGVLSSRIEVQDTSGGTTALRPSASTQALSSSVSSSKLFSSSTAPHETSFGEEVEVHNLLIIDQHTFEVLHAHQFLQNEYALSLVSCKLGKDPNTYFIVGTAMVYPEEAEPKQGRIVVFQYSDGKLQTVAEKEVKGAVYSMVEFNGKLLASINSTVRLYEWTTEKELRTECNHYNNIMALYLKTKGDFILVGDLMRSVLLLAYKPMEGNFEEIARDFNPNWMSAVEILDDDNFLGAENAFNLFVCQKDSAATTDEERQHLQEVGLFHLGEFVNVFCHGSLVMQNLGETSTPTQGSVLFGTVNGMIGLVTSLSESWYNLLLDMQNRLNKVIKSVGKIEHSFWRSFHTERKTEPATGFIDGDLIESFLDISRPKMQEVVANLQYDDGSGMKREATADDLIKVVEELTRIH

Structure (SMILES) | Dmax at 25 µM [%] | remaining activity at 25 µM [%] | DC50 [nM] | % degradation of WIZ (100-Amax) [%] | WIZ Amax [%]
CC(C)(C)OC(=O)N1[C@@H]2CC[C@H]1CN(Cc1ccc3onc(N4CCC(=O)NC4=O)c3c1)C2 [Example 99, tert-butyl (1R,5S)-3-((3-(2,4-dioxotetrahydropyrimidin-1(2H)-yl)benzo[d]isoxazol-5-yl)methyl)-3,8-diazabicyclo[3.2.1]octane-8-carboxylate] | 74 | 26 | 450 | – | –
O=C1CCN(c2noc3ccc(CN4CCN(Cc5cccc(F)c5)CC4)cc23)C(=O)N1 [Example 27, 1-(5-((4-(3-fluorobenzyl)piperazin-1-yl)methyl)benzo[d]isoxazol-3-yl)dihydropyrimidine-2,4(1H,3H)-dione] | 86 | 14 | 210 | – | –
O=C1CCN(c2noc3ccc(CN4CCN(Cc5cccnc5)CC4)cc23)C(=O)N1 [Example 26, 1-(5-((4-(pyridin-3-ylmethyl)piperazin-1-yl)methyl)benzo[d]isoxazol-3-yl)dihydropyrimidine-2,4(1H,3H)-dione] | 86 | 14 | 190 | – | –
O=C1CCN(c2noc3ccc(CN4CCN5CCOC[C@H]5C4)cc23)C(=O)N1 [Example 110, (R)-1-(5-((hexahydropyrazino[2,1-c][1,4]oxazin-8(1H)-yl)methyl)benzo[d]isoxazol-3-yl)dihydropyrimidine-2,4(1H,3H)-dione] | 85 | 15 | 65 | – | –
CC(C)[C@H]1CN(Cc2ccc3onc(N4CCC(=O)NC4=O)c3c2)CCN1CC1CCOCC1 [Example 38, (S)-1-(5-((3-isopropyl-4-((tetrahydro-2H-pyran-4-yl)methyl)piperazin-1-yl)methyl)benzo[d]isoxazol-3-yl)dihydropyrimidine-2,4(1H,3H)-dione] | 76 | 24 | 140 | – | –
O=C1CCN(c2noc3ccc(CC4C[C@H]5CC[C@@H](C4)N5)cc23)C(=O)N1 (stereo partly drawn) [Example 57, 1-(5-(((1R,5S)-8-azabicyclo[3.2.1]octan-3-yl)methyl)benzo[d]isoxazol-3-yl)dihydropyrimidine-2,4(1H,3H)-dione] | – | – | 649 | 80 | 20
CC(C)(C)OC(=O)N1[C@@H]2CC[C@H]1CC(Cc1ccc3onc(N4CCC(=O)NC4=O)c3c1)C2 (single isomer, unassigned) [Example 55] | – | – | 3200 | 70 | 30
CS(=O)(=O)N1C[C@H]2CC[C@@H](C1)N2Cc1ccc2onc(N3CCC(=O)NC3=O)c2c1 [Example 104, 1-(5-(((1R,5S)-3-(methylsulfonyl)-3,8-diazabicyclo[3.2.1]octan-8-yl)methyl)benzo[d]isoxazol-3-yl)dihydropyrimidine-2,4(1H,3H)-dione] | 85 | 15 | 181 | – | –
CC(C)[C@H]1CN(Cc2ccc3onc(N4CCC(=O)NC4=O)c3c2)CCN1C [Example 37, (S)-1-(5-((3-isopropyl-4-methylpiperazin-1-yl)methyl)benzo[d]isoxazol-3-yl)dihydropyrimidine-2,4(1H,3H)-dione] | 80 | 20 | 260 | – | –
C[C@H]1CN(Cc2ccc3onc(N4CCC(=O)NC4=O)c3c2)CCN1C1COC1 [Example 82, (S)-1-(5-((3-methyl-4-(oxetan-3-yl)piperazin-1-yl)methyl)benzo[d]isoxazol-3-yl)dihydropyrimidine-2,4(1H,3H)-dione] | 95 | 5 | 77 | – | –
CC(C)N1CCN(Cc2ccc3onc(N4CCC(=O)NC4=O)c3c2)[C@H](C)C1 [Example 69, (R)-1-(5-((4-isopropyl-2-methylpiperazin-1-yl)methyl)benzo[d]isoxazol-3-yl)dihydropyrimidine-2,4(1H,3H)-dione] | 83 | 17 | 45 | – | –
CC(C)C(=O)N1CCN(Cc2ccc3onc(N4CCC(=O)NC4=O)c3c2)CC1 [Example 85, 1-(5-((4-isobutyrylpiperazin-1-yl)methyl)benzo[d]isoxazol-3-yl)dihydropyrimidine-2,4(1H,3H)-dione] | 82 | 18 | 218 | – | –
CC(C)(C)OC(=O)N1CCCC(Cc2ccc3onc(N4CCC(=O)NC4=O)c3c2)CC1 (stereo not drawn) [Example 51, tert-butyl 4-((3-(2,4-dioxotetrahydropyrimidin-1 (2H)-yl)benzo[d]isoxazol-5-yl)methyl)azepane-1-carboxylate] | 87 | 13 | 392 | – | –
O=C1CCN(c2noc3ccc(CN4CCN(C5CC5)CC4)cc23)C(=O)N1 [Example 119, 1-(5-((4-cyclopropylpiperazin-1-yl)methyl)benzo[d]isoxazol-3-yl)dihydropyrimidine-2,4(1H,3H)-dione] | 86 | 14 | 189 | – | –

The remaining compounds from weak to strong by DC50, led by results:

Dmax at 25 µM [%] | remaining activity at 25 µM [%] | DC50 [nM] | Structure (SMILES) | % degradation of WIZ (100-Amax) [%] | WIZ Amax [%]
89 | 11 | 59 | CN1CC2CCC1CN2Cc1ccc2onc(N3CCC(=O)NC3=O)c2c1 (single isomer, unassigned) [Example 123, 1-(5-((5-methyl-2,5-diazabicyclo[2.2.2]octan-2-yl)methyl)benzo[d]isoxazol-3-yl)dihydropyrimidine-2,4(1H,3H)-dione] | – | –
86 | 14 | 57 | O=C1CCN(c2noc3ccc(CC4CCCNCC4)cc23)C(=O)N1 (stereo not drawn) [Example 52, 1-(5-(azepan-4-ylmethyl)benzo[d]isoxazol-3-yl)dihydropyrimidine-2,4(1H,3H)-dione] | – | –
91 | 9 | 56 | O=C1CCN(c2noc3ccc(CC4CCN(Cc5ccccc5)CC4)cc23)C(=O)N1 [Example 9, 1-(5-((1-benzylpiperidin-4-yl)methyl)benzo[d]isoxazol-3-yl)dihydropyrimidine-2,4(1H,3H)-dione] | – | –
78 | 22 | 53 | O=C1CCN(c2noc3ccc(CN4CCN(CC5CCOCC5)[C@@H](C(F)F)C4)cc23)C(=O)N1 [Example 115, (R)-1-(5-((3-(difluoromethyl)-4-((tetrahydro-2H-pyran-4-yl)methyl)piperazin-1-yl)methyl)benzo[d]isoxazol-3-yl)dihydropyrimidine-2,4(1H,3H)-dione] | – | –
– | – | 44 | O=C1CCN(c2noc3ccc(CN4CC5CCC4CN5CC4CCOCC4)cc23)C(=O)N1 (single isomer, unassigned) [Example 122, 1-(5-((5-((tetrahydro-2H-pyran-4-yl)methyl)-2,5-diazabicyclo[2.2.2]octan-2-yl)methyl)benzo[d]isoxazol-3-yl)dihydropyrimidine-2,4(1H,3H)-dione] | 91 | 9
83 | 17 | 40 | C[C@@H]1CN(CC2COC2)CCN1Cc1ccc2onc(N3CCC(=O)NC3=O)c2c1 [Example 68, (R)-1-(5-((2-methyl-4-(oxetan-3-ylmethyl)piperazin-1-yl)methyl)benzo[d]isoxazol-3-yl)dihydropyrimidine-2,4(1H,3H)-dione] | – | –
82 | 18 | 34 | C[C@@H]1CN(S(C)(=O)=O)CCN1Cc1ccc2onc(N3CCC(=O)NC3=O)c2c1 [Example 71, (R)-1-(5-((2-methyl-4-(methylsulfonyl)piperazin-1-yl)methyl)benzo[d]isoxazol-3-yl)dihydropyrimidine-2,4(1H,3H)-dione] | – | –
92 | 8 | 16 | CC(C)N1CCN(Cc2ccc3onc(N4CCC(=O)NC4=O)c3c2)CC1 [Example 79, 1-(5-((4-isopropylpiperazin-1-yl)methyl)benzo[d]isoxazol-3-yl)dihydropyrimidine-2,4(1H,3H)-dione] | – | –
93 | 7 | 14 | O=C1CCN(c2noc3ccc(CN4CCN(C5CCC5)CC4)cc23)C(=O)N1 [Example 80, 1-(5-((4-cyclobutylpiperazin-1-yl)methyl)benzo[d]isoxazol-3-yl)dihydropyrimidine-2,4(1H,3H)-dione] | – | –
86 | 14 | 11 | C[C@H]1CN(Cc2ccc3onc(N4CCC(=O)NC4=O)c3c2)CCN1CC1COC1 [Example 86, (S)-1-(5-((3-methyl-4-(oxetan-3-ylmethyl)piperazin-1-yl)methyl)benzo[d]isoxazol-3-yl)dihydropyrimidine-2,4(1H,3H)-dione] | – | –
85 | 15 | 8 | CC[C@@H]1CN(CC(C)C)CCN1Cc1ccc2onc(N3CCC(=O)NC3=O)c2c1 [Example 88, (R)-1-(5-((2-ethyl-4-isobutylpiperazin-1-yl)methyl)benzo[d]isoxazol-3-yl)dihydropyrimidine-2,4(1H,3H)-dione] | – | –
88 | 12 | 7 | Cc1c(CN2CCN(CC(C)C)[C@@H](C)C2)ccc2onc(N3CCC(=O)NC3=O)c12 [Example 128, (S)-1-(5-((4-isobutyl-3-methylpiperazin-1-yl)methyl)-4-methylbenzo[d]isoxazol-3-yl)dihydropyrimidine-2,4(1H,3H)-dione] | – | –
85 | 15 | 7 | CC(C)CN1CCN(Cc2ccc3onc(N4CCC(=O)NC4=O)c3c2)[C@H](C(C)C)C1 [Example 90, (R)-1-(5-((4-isobutyl-2-isopropylpiperazin-1-yl)methyl)benzo[d]isoxazol-3-yl)dihydropyrimidine-2,4(1H,3H)-dione] | – | –
